Patent publication US11357786B2, “Synthetic disugar hydrocarbons as natural analogs to control microbial behaviors” (Syracuse University, priority 2014, dated 2022)
“Also recorded” adds a separate entry of the source.

Legend:
Type in all cases: cell-based, Pseudomonas aeruginosa
PAO1 biofilm [1] = assay: Crystal violet based static biofilm inhibition assay, DSHs in LB media (Examples 2 and 4); settings: for Inhibition of PAO1 biofilm formation (surface attached): 160 μM, 24 h, LB media
Experimental: The ability of DSHs was tested to inhibit Pseudomonas aeruginosa adhesion, biofilm and to disperse pre-formed biofilm. To quantify the amount of PAO1/EGFP attached on the surface of micro titer plates with or without the synthesized DSHs, fluorescence emitted by green fluorescent proteins (GFP) was quantified (see supporting info for details). Crystal violet (CV) based static biofilm assay (see supporting info) was used to screen the anti-biofilm potencies of all synthesized agents. Both surface attached (SA) (FIG. 17) and total (SA+air-liquid interface) biofilm of P. aeruginosa was quantified. […] CV assays were also used to quantify the amount of P. aeruginosa biofilm remaining after dispersion experiments (FIG. 19). Initially, all agents were screen for anti-biofilm activities (both inhibition and dispersion) at 160 μM. […] All reported biofilm inhibition results are an average of 4 identical wells.
The effect that DSHs have on the adhesion of PAO1-EGFP on polystyrene surface (microtiter plate) was also examined. PAO1-EGFP is a P. aeruginosa strain that constitutively expresses green fluorescent protein. In the adhesion assays, PAO1-EGFP was grown in microtiter plate for 24-hours in LB-media with (160 μM) or without DSHs. After 24-hours, the fluorescent signal obtained from surface adhered PAO1-EGFP was measured. Percent reduction in fluorescence was calculated by comparing fluorescent signal from PAO1-EGFP grown in LB-media with the signal from wells that had DSHs (FIG. 29A). To study the effect of DSHs on biofilm formation, Pseudomonas aeruginosa (PAO1) was grown in LB-media with (160 μM) or without DSHs at 37° C. under static conditions within wells of microtiter plates. After 24 hours, the surface attached biofilms adhering to the bottom of the wells were stained with crystal-violet dye and the biofilm was quantified by measuring absorbance at 600 nm (OD600). […] Similar to inhibition, the surface attached biofilm after dispersion with DSHs was quantified with crystal-violet staining and absorbance measurement at 600 nm, except that for dispersion, biofilm was first grown for 1 day in just LB-media without any DSHs after which DSHs were added and plates were incubated for additional 24 hours followed by quantification (FIG. 29B).
Crystal violet (CV) based-biofilm inhibition assay. Inhibitory effect of all synthesized disaccharide hydrocarbons on biofilm formation of Pseudomonas aeruginosa (wild type PAO1) was determined by static biofilm inhibition assay using crystal violet staining. Overnight culture of PAO1 were sub cultured in LB media to OD600 of 0.01 and further the OD600 was allowed to reach ˜0.1. The bacterial sub-culture (200 μL) was then added into the wells of a microtiter plate. Predetermined concentrations of DSHs were added to respective wells containing sub culture by pipetting out fixed volume of sterile aqueous stock solutions (except DβL (7), SPOT, (15) and 2-ODαC (17), which were introduced as stocks prepared in H2O […] and EtOH (90:10) solutions). The microtiter plates were then wrapped in GLAD Press n′ Seal® (saran wrap) and further incubated under stationary conditions for 24 h at 37° C. After 24 h incubation, the culture media was discarded by pipetting carefully (without disrupting biofilm), the plate was then washed once with sterile water (200 μL) and allowed to dry at 37° C. for ˜30 mins. Microtiter plates were then stained with 0.1% aqueous solution of crystal violet (CV) (200 μL) at rt for ˜30 mins. Following this, the CV stain was removed and plate was again washed with sterile water (200 μL). Resultant CV stain in the well was then solubilized by adding 100 μL of 30% AcOH solution (in water) and mixing gently by pipetting.

1-day old PAO1 biofilm = assay: Crystal violet assay for dispersion of 1-day old biofilm, DSHs (Examples 2 and 4); settings: 160 μM, another 24 h
Experimental: The effect that DSHs have on the adhesion of PAO1-EGFP on polystyrene surface (microtiter plate) was also examined. PAO1-EGFP is a P. aeruginosa strain that constitutively expresses green fluorescent protein. In the adhesion assays, PAO1-EGFP was grown in microtiter plate for 24-hours in LB-media with (160 μM) or without DSHs. After 24-hours, the fluorescent signal obtained from surface adhered PAO1-EGFP was measured. Percent reduction in fluorescence was calculated by comparing fluorescent signal from PAO1-EGFP grown in LB-media with the signal from wells that had DSHs (FIG. 29A). To study the effect of DSHs on biofilm formation, Pseudomonas aeruginosa (PAO1) was grown in LB-media with (160 μM) or without DSHs at 37° C. under static conditions within wells of microtiter plates. After 24 hours, the surface attached biofilms adhering to the bottom of the wells were stained with crystal-violet dye and the biofilm was quantified by measuring absorbance at 600 nm (OD600). The percent inhibition was calculated by comparing biofilm content of wells with no added agents (control) with the biofilm content from wells that had 160 μM of DSHs (FIG. 29A). Similar to inhibition, the surface attached biofilm after dispersion with DSHs was quantified with crystal-violet staining and absorbance measurement at 600 nm, except that for dispersion, biofilm was first grown for 1 day in just LB-media without any DSHs after which DSHs were added and plates were incubated for additional 24 hours followed by quantification (FIG. 29B).
Crystal violet based assay for quantifying dispersion of 1-day old PAO1 biofilms were Plate for set up similar to inhibition assay with a slight modification. Wells of the micro-titer plate was inoculated with (200 μL) bacterial subculture (PAO1 subculture OD600 ˜0.1). The plates were incubated at 37° C. for 24 hours to allow biofilm formation. After 24 hours, bacterial culture was gently pipetted out and appropriate volume of DSH were added followed by addition of fresh LB medium (200 μL). The microtiter plate was incubated for an additional 24 hours at 37° C., following which, similar to work up of inhibition assay, culture was removed, wells were washed and CV-dye was introduced, followed by washing and destaining with 30% AcOH solution in water and quantification at 600 nm. Here again, only the surface attached biofilm dispersed was reported by comparing wells with DSHs with wells with no agent.
Dose dependence assays for biofilm inhibition and dispersion. […] Both for biofilm inhibition and dispersion, predetermined volumes of DSH stocks were added to the assigned wells to span a concentration range between 0.5 μM-170 μM. Percent biofilm inhibition of dispersion was calculated by comparing to wells with no agent. The percent biofilm inhibition or dispersion was plotted versus concentration of DSHs. The linear values were logarithmically curve fitted using equation […]. The half maximal inhibitory concentration for both biofilm inhibition and dispersion (IC50 and DC50) were thus obtained.

wild type PAO1 = assay: Swarming motility of wild type PAO1 on soft agar (antagonist assay)
Experimental: In contrast, the wild type P. aeruginosa produces the rhamnolipids and is capable of swarming on soft agar gel (˜0.5% agar). […] We note that saccharide hydrocarbons may also promote the swarming motility, but such promotions are less unambiguous than the inhibition for wild type PAO1. Such promotion will be unambiguous in the agonist assay using the nonswarming mutant rhlA.
(§1) Swarm agar plates were based on M8 medium supplemented with 0.2% glucose, 0.5% casamino acid, 1 mM MgSO4 and […]. 17 For each set of experiment all the swarm plates were poured from same batch of agar and allowed to dry for 1 h before inoculation of bacteria. Bacterial culture (3 μl) (wild type PAO1 or rhlA mutant) with OD600 between […] was inoculated on the solidified agar plates. Swarm agar plates were incubated at 37° C. for 12 h and then incubated for additional 12 h at room temp. Chronological images of swarm plates were taken using a camera. To measure swarming area, sizes of the petridish in all swarming images were adjusted to a pre-assigned diameter and images were printed on copying paper (Xerox-business 4200). Weight of a 1 cm^2 copy paper square was roughly ˜8.0 mg. swarming images on the copy paper were cut and weighed, the swarm area was calculated by dividing the weight of image by weight of 1 cm^2 square (8 mg).
(§2) Swarm agar plates were made using M8 medium supplemented with 0.2% glucose, 0.5% casamino acid, 1 mM MgSO4 and solidified with 0.5% Bacto agar. 24 Bacterial culture with OD600 between 0.4 to 0.6 was inoculated as 3 μl aliquots. Swarm agar plates were incubated at 37° C. for 12 h and then incubated for additional 12 h at rt. For each set of experiment all the swarm plates were poured from same batch of agar and allowed to dry for 1 h before inoculation of bacteria.

[2] = system: nonswarming P. aeruginosa mutant rhlA; assay: Swarming motility of nonswarming rhlA mutant on soft agar (reactivation / agonist assay); settings: 85 μM in soft agar (0.5%), 24 h
From the text: Using nonswarming mutant to screen for swarming agonists and wild type P. aeruginosa for swarming antagonists. The transposon mutant, rhlA (genotype, rhlA-E08:ISphoA/hah)39 of P. aeruginosa (PAO1), that impairs the gene that is responsible for synthesizing rhamnolipids is completely incapable of a swarming motility. […] Based on this inference, a rhlA mutant was used in a swarming experiment to screen the saccharide-hydrocarbons for agonists that can reactivate the swarming motility of rhlA.
as §1, §2

PAO1 biofilm [3] = assay: Crystal violet dye based biofilm inhibition assay, maltose derivatives (Example 1); settings: 110 μM, 24 h, CV assay
Experimental: A crystal violet (CV) assay was used to measure the amount of PAO1 biofilm formed after 24 h of bacterial inoculation. The fluorescence of green fluorescent proteins (GFP) expressed by PAO1-GFP was measured to directly quantify bacterial adhesion on polystyrene black 96 well plates with and without maltose derivatives after 2 h of bacterial inoculation. To evaluate the potential of maltose derivatives as both anti-biofilm and anti-adhesion agents, they were compared to a brominated furanone (BF8) known to inhibit biofilm formation, and two generic surfactants, sodium dodecyl sulfate (SDS) and tetra (ethylene glycol) monododecyl ether (C12EG4OH). […] P. aeruginosa strain PAO1-EGFP that constitutively producing green fluorescent protein was allowed to form biofilm on sterile steel coupons.
Inhibitory effect of all the maltose hydrocarbons on P. aeruginosa biofilm formation was determined by crystal violet dye based biofilm inhibition assays. Overnight culture of wild type P. aeruginosa (PAO1) was sub cultured to an OD600 of 0.01 into the 95:5 M9+:Lb medium. 200 μL of the sub culture was aliquoted into the wells of 96 well polystyrene microtiter plate when it reached the OD600 of 0.1. Predetermined concentrations of the test compounds were then added to the respective wells containing sub culture. Sample plates were wrapped in GLAD Press n′ Seal® followed by incubation under stationary conditions for 24 h at 37° C. After incubation the media was discarded and the plates were washed with water and dried for 1 h at 37° C. The sample plates were stained with 200 μL of 0.1% aqueous solution of crystal violet (CV) and followed by incubation at ambient temperature for 20 min. The CV stain was then discarded and the plates were washed with water. The remaining biofilm adhered stain was re-solubilized with 200 μL of 30% acetic acid. After the stain was dissolved (15 minutes), 100 μL of the solubilized CV was transferred from each well into the corresponding wells of a new polystyrene microtiter dish. Biofilm inhibition was quantified by measuring the OD600 of each well in which a negative control lane wherein no biofilm was formed served as a background and was subtracted out. The percent inhibition was calculated by the comparison of the OD600 for biofilm grown in the absence of compound (control) versus biofilm grown in the presence of compound under identical conditions.
Predetermined amounts maltose derivatives stock solution was added to the 200 μL bacterial culture in 96 well plate so that the final concentration of the agent reaches the desired values of 1, 5, 10, 20, 40, 85, 113, 140 μM. Biofilm inhibition and dispersion assay was carried as described previously.

Molecule: CCCCCCCCCCC(CCCCCCCC)CO[C@H]1O[C@H](CO)[C@@H](O[C@@H]2O[C@H](CO)[C@@H](O)[C@H](O)[C@H]2O)[C@H](O)[C@H]1O (stereo partly drawn) [2-ODαC (17), 2-octyl-dodecyl-α-cellobioside]
- Inhibition of PAO1 biofilm formation (surface attached) (PAO1 biofilm [1]): not active for biofilm inhibition or dispersion
- Inhibition of PAO1 biofilm formation (surface attached) (PAO1 biofilm [1]; listed as 17: 2-ODαC, 160 µM): ineffective at biofilm inhibition
- Dispersion of 24-h old PAO1 biofilm (1-day old PAO1 biofilm): not active for biofilm inhibition or dispersion

Molecule: CCCCCCCCCCC(CCCCCCCC)CO[C@@H]1O[C@H](CO)[C@@H](O[C@@H]2O[C@H](CO)[C@@H](O)[C@H](O)[C@H]2O)[C@H](O)[C@H]1O (stereo partly drawn) [2-ODβC (16), 2-octyl-dodecyl-β-cellobioside]
- Swarming motility of wild type PAO1 (wild type PAO1; 85 μM in soft agar, 24 h): inhibited the swarming motility of wild type PAO1
- Effect on PAO1 swarming (wild type PAO1; concentration not given): did exhibit inhibition of PAO1 swarming; also recorded: inhibits the swarming activities of PAO1; also recorded: PAO1 swarming inhibitors
- Swarming motility of rhlA mutant [2]: no apparent effect on rhlA
- Inhibition of PAO1 biofilm formation (surface attached) (PAO1 biofilm [1]; listed as 16: 2-ODβC, 160 µM): ineffective at biofilm inhibition
- Anti-biofilm activity (biofilm inhibition) (PAO1 biofilm [1]; concentration not given): not effective at inhibiting the biofilm formation
- Dispersion of 24-h old PAO1 biofilm (1-day old PAO1 biofilm): not active for biofilm inhibition or dispersion

Molecule: CCCCCCCCCCC(CO[C@@H]1O[C@H](CO)[C@@H](O[C@H]2O[C@H](CO)[C@@H](O)[C@H](O)[C@H]2O)[C@H](O)[C@H]1O)Cc1ccc(C(C)(C)C)cc1 (stereo partly drawn) [4-tBuBDβM, 4-tertiary butyl benzyl dodecyl β-maltoside]
- Inhibition of PAO1 biofilm (PAO1 biofilm [3]): 74%
- Swarming motility of rhlA mutant [2]: did not exhibit any significant activation of swarming

Molecule: benzyl decyl β-maltoside [BDeβM]
- Inhibition of PAO1 biofilm (PAO1 biofilm [3]): 50%
- Swarming motility of rhlA mutant [2]: swarming motility with without well-defined tendrils
